In brackets after ≈: the same amount, converted by molar mass.
Conditions: buffer; pH 7.4; 200.0 µM
Work on `O=C(CN1C(=O)C2C3C=CC(C3)C2C1=O)OCC(=O)c1ccc(Cl)cc1` (stereo unspecified) yielded a solubility kinetic greater than 56.1 µg/mL. `COc1ccc(N=Cc2c(OC)ccc3ccccc23)cc1` showed a solubility kinetic of 33.9 µg/mL (≈ 116 µM). For `Cc1ccc(S(=O)(=O)Nc2cnc3ccccc3c2)cc1`, the solubility kinetic was greater than 44.8 µg/mL. Compound `CCN(C(=O)N1CCOCC1)c1ccccc1` has a solubility kinetic of 34.7 µg/mL (≈ 148 µM). Work on `CC(C)Cc1nc(Cl)c(C#N)c2c1CCC2` yielded a solubility kinetic of 3.8 µg/mL (≈ 16.2 µM). `CC1CCCC(C)N1CC(O)COC1CCC(C(C)(C)C)CC1.Cl` (stereo unspecified) gave a solubility kinetic of 46.9 µg/mL. For `Cc1[nH]c2ccccc2c1SCC(=O)N1CCCCCC1`, the solubility kinetic was 25.8 µg/mL (≈ 85.3 µM). With `COc1ccc(NC(=O)c2ccc(C)cc2)c[n+]1[O-]` the solubility kinetic was greater than 38.7 µg/mL. For `CC(C)N1C(=O)C(O)(C2COC(C)(C)CC2=O)c2ccccc21` (stereo unspecified), the solubility kinetic was greater than 47.6 µg/mL. Compound `CNc1ccc(C(=O)OCC(=O)NC(=O)NC2CCCC2)cc1[N+](=O)[O-]` has a solubility kinetic of 1.7 µg/mL (≈ 4.67 µM). In the case of `O=C1NC(=O)/C(=C\c2ccc(OCc3ccccc3)cc2)S1`, the solubility kinetic is reported as less than 0.7 µg/mL. With `Cc1c(Cl)cccc1NC(=O)CCN1C(=O)NC(C)(C)C1=O` the solubility kinetic was greater than 48.6 µg/mL. Work on `CC(=O)c1c[nH]c(C(=O)NCc2ccccc2Cl)c1` yielded a solubility kinetic of 3.5 µg/mL (≈ 12.6 µM). Compound `O=C(O)/C=C/C(=O)Nc1ccc(Oc2ncnc3cc(Cl)ccc23)nc1` has a solubility kinetic greater than 55.6 µg/mL. `CC1=C(C(=O)OCC2CCCCC2)C(c2ccccc2F)NC(=O)N1` (stereo unspecified) gave a solubility kinetic of 0.6 µg/mL (≈ 1.73 µM). With `N#CCCN(C(=O)CN1c2cccc3cccc(c23)S1(=O)=O)c1ccccc1` the solubility kinetic was 15 µg/mL (≈ 38.3 µM). In the case of `Cn1cc(/C=N/NC(N)=S)c2ccccc21`, the solubility kinetic is reported as greater than 34.8 µg/mL. In the case of `O=C1CN(c2nc3nonc3nc2N2CCCCC2)CCN1`, the solubility kinetic is reported as 45.2 µg/mL (≈ 149 µM). `Cc1ccc(C)c(S(=O)(=O)c2c(C)cc(C)nc2Cl)c1` showed a solubility kinetic of 27 µg/mL (≈ 87.1 µM). `CN(CCC#N)C(=O)c1cc2c(Cl)nc3ccccc3c2s1` showed a solubility kinetic of 1.1 µg/mL (≈ 3.34 µM). `O=C(CCOc1ccccc1)Nc1ccc(Br)cc1` gave a solubility kinetic of less than 0.7 µg/mL. Compound `C/C=C/C=C/C(=O)OCC(=O)Nc1ccc(Cl)cc1` has a solubility kinetic of 6.2 µg/mL (≈ 22.2 µM). `CC(C)Cc1ccc(C(C)NC(=O)c2ccc(=O)[nH]c2)cc1` (stereo unspecified) gave a solubility kinetic of 10 µg/mL (≈ 33.5 µM). For `CCOC(=O)C(=CNc1ccc(C(F)(F)F)cc1)C(=O)OCC`, the solubility kinetic was 2.7 µg/mL (≈ 8.15 µM). `CC(=O)N/C(=C\c1ccccc1)C(=O)NC(C)C(=O)O` (stereo unspecified) showed a solubility kinetic greater than 41.4 µg/mL. For `CCOC(=O)c1sc(=S)n(-c2ccc(OC)cc2)c1N`, the solubility kinetic was 2 µg/mL (≈ 6.44 µM). For `CSc1cccc(NC(=O)C2(S(=O)(=O)c3ccc(C)cc3)CC2)c1`, the solubility kinetic was 19.9 µg/mL (≈ 55.1 µM). Work on `NS(=O)(=O)c1ccc(CCNC(=O)c2ccc3c(c2)OCO3)cc1` yielded a solubility kinetic greater than 52.3 µg/mL. With `Cc1cc(=O)n2c3ccccc3n(C)c2n1` the solubility kinetic was greater than 32 µg/mL. For `O=C(NCc1ccccn1)C(=O)Nc1cccc2ccccc12`, the solubility kinetic was 35.4 µg/mL (≈ 116 µM). Work on `COC(=O)/C=C1/SC(=NC(=O)c2ccc(F)cc2)NC1=O` yielded a solubility kinetic greater than 46.2 µg/mL. Work on `Cn1c(O)c(/C=C2/C=CC=N2)c(=O)[nH]c1=O` yielded a solubility kinetic greater than 32.9 µg/mL. With `c1cnc2c(c1)ccc1cccnc12` the solubility kinetic was greater than 27 µg/mL. For `Cc1nc(-c2ccc(C(=O)NCCO)cc2)cs1`, the solubility kinetic was greater than 39.3 µg/mL. For `Cn1ccsc1=NC(=O)c1ccccc1OC(F)F`, the solubility kinetic was 38.7 µg/mL (≈ 136 µM). In the case of `CN1CC(C(=O)c2ccccc2)C(c2ccccc2)C1` (stereo unspecified), the solubility kinetic is reported as greater than 39.8 µg/mL. Work on `CC(C)(C)C(=O)/C=C1\NC(=O)CS1` yielded a solubility kinetic greater than 29.9 µg/mL. With `C#CCOc1ccc(/C=C2/C(=O)ON=C2C)cc1OCC` the solubility kinetic was 27.1 µg/mL (≈ 95 µM). With `CN(CC(=O)Nc1cccc(F)c1)C(=O)c1ccc(N2CCOCC2)c([N+](=O)[O-])c1` the solubility kinetic was 33.7 µg/mL (≈ 80.9 µM). Compound `Nc1ccc2nc(SCC(=O)c3ccccc3)sc2c1` has a solubility kinetic of 1.8 µg/mL (≈ 5.99 µM). `Cc1ccccc1NC(=O)CCC(=O)OCC(=O)c1cccc([N+](=O)[O-])c1` showed a solubility kinetic greater than 55.6 µg/mL. `CCc1ccc(N2C(=O)CC(=O)NC2=O)cc1` gave a solubility kinetic greater than 34.8 µg/mL. `Cc1cccn2cc(-c3ccc4c(c3)NC(=O)CO4)nc12` gave a solubility kinetic of 7.9 µg/mL (≈ 28.3 µM). `O=C(O)CN1C(=O)/C(=C/c2ccccc2Cl)Oc2ccccc21` showed a solubility kinetic greater than 49.5 µg/mL. `O=C(O)CC(c1ccc(F)cc1F)N1Cc2ccccc2C1=O` (stereo unspecified) showed a solubility kinetic greater than 47.6 µg/mL. Work on `CCN1C(=O)c2cccc3c(S(=O)(=O)N(C(C)=O)c4ccc(OC(C)=O)cc4)ccc1c23` yielded a solubility kinetic of 4.3 µg/mL (≈ 9.5 µM). With `Cc1cc(C)cc(C(=O)OCC(=O)NC2CCCC2)c1` the solubility kinetic was 21.7 µg/mL (≈ 78.8 µM). Work on `Cc1ccc(CNc2nc(N)c([N+](=O)[O-])c(NCCO)n2)cc1` yielded a solubility kinetic of 43.4 µg/mL (≈ 136 µM). Compound `Cc1cccc(C(=O)Nc2sc3c(c2C(=O)O)CCCC3)c1` has a solubility kinetic of 6.9 µg/mL (≈ 21.9 µM). `O=C(COC(=O)c1cccnc1Cl)NCCC1=CCCCC1` showed a solubility kinetic greater than 48.4 µg/mL. `COc1ccc(COC(=O)Nc2c(SC)nsc2SC)cc1` showed a solubility kinetic of 1 µg/mL (≈ 2.81 µM). For `O=S(=O)(c1ccc(Cl)cc1)N1CCCCC1c1cccnc1` (stereo unspecified), the solubility kinetic was 47.7 µg/mL (≈ 142 µM). `Cc1ccc2nc(-c3ccccc3)c(CC(=O)O)c(C(=O)O)c2c1` showed a solubility kinetic greater than 48.2 µg/mL. For `CC(=O)C1=C(C)NC(C)=C(C(C)=O)C1c1ccccc1`, the solubility kinetic was 35.3 µg/mL (≈ 131 µM). For `Cc1cc(C)cc(NC(=O)COC(=O)c2ccc3c(c2)OCCO3)c1`, the solubility kinetic was 2.3 µg/mL (≈ 6.74 µM). For `CCOc1cc2c(C#N)c(N3CCCCC3)nc(N)c2c(N)n1`, the solubility kinetic was 10.6 µg/mL (≈ 33.9 µM). In the case of `CCN(C(=O)c1ccco1)c1nc(-c2ccc(OC)cc2)cs1`, the solubility kinetic is reported as less than 0.4 µg/mL. In the case of `O=C(COC(=O)/C=C/c1cccc(F)c1)Nc1ccc(Cl)cn1`, the solubility kinetic is reported as 5 µg/mL (≈ 14.9 µM). Work on `CNC(=O)CO/N=C/c1ccc(N(C)C)cc1` yielded a solubility kinetic greater than 35.3 µg/mL. For `FC(F)(F)c1ccc(-n2cn[nH]c2=S)cc1`, the solubility kinetic was greater than 36.8 µg/mL. Work on `Cc1ccccc1NCc1nc2ccccc2n1C` yielded a solubility kinetic of 5 µg/mL (≈ 19.9 µM). In the case of `Cc1cccc(-c2noc(CN(C)C(=O)c3ccoc3C)n2)c1`, the solubility kinetic is reported as 40.9 µg/mL (≈ 131 µM). In the case of `Cc1ccc(NC(=O)CN2CCOCC2)cc1S(=O)(=O)N1CCCCC1`, the solubility kinetic is reported as greater than 57.2 µg/mL. In the case of `O=C(NCc1cccc(C(F)(F)F)c1)c1ccc2c(c1)OCO2`, the solubility kinetic is reported as 34.8 µg/mL (≈ 108 µM). `COC(=O)c1c(C)oc(C)c1S(=O)(=O)NCc1ccc(Cl)cc1` showed a solubility kinetic of 5 µg/mL (≈ 14 µM). Work on `Cc1cc(C)c(C(=O)CSc2nnc(C)c(=O)[nH]2)cc1C` yielded a solubility kinetic greater than 45.5 µg/mL. `O=C(CN1c2cccc3cccc(c23)S1(=O)=O)Nc1c(F)c(F)c(F)c(F)c1F` gave a solubility kinetic of 1.3 µg/mL (≈ 3.03 µM). `CCn1c(=O)c2sccc2n(Cc2cccc(C)c2)c1=O` gave a solubility kinetic of 9 µg/mL (≈ 30 µM). `O=c1[nH]c2ccsc2c(=O)n1CCO` showed a solubility kinetic greater than 31.8 µg/mL. In the case of `Cc1cc2oc(C(=O)Nc3nonc3C)c(C)c2cc1Cl`, the solubility kinetic is reported as less than 0.2 µg/mL. Compound `Cc1cc(NC(=O)CSc2nc(C)c(C)c(=O)[nH]2)no1` has a solubility kinetic greater than 44.1 µg/mL. With `COc1ccc(CN2CCc3c([nH]c4ccccc34)C2)cc1Br` the solubility kinetic was 9.8 µg/mL (≈ 26.4 µM). With `COc1ccc(NC(=O)/C(=C/c2cccs2)NC(=O)c2ccco2)cc1` the solubility kinetic was 5 µg/mL (≈ 13.6 µM). `CCCc1cc(NCCCN(C)C)n2c(nc3ccccc32)c1C#N` showed a solubility kinetic of 40.5 µg/mL (≈ 121 µM). `CCOc1ccc(CNC(=O)CCc2cn(C)c3ccccc23)cc1` showed a solubility kinetic of 2.1 µg/mL (≈ 6.24 µM). `O=C(NC1CCCCC1)C1COc2ccccc2O1` (stereo unspecified) gave a solubility kinetic greater than 39.2 µg/mL. `Cc1ccc(OCC(=O)O/N=C(\N)c2ccccn2)cc1C` gave a solubility kinetic of 38.1 µg/mL (≈ 127 µM). `Cc1c(Cl)cnc(NC(=O)COC(=O)CNC(=O)c2ccccc2)c1Cl` showed a solubility kinetic of 52.3 µg/mL (≈ 132 µM). For `CC1CN=C(NCCc2ccccc2)S1` (stereo unspecified), the solubility kinetic was greater than 33 µg/mL. Work on `O=C(c1ccc(Br)o1)N1CC=C(c2ccccc2)CC1` yielded a solubility kinetic of 33 µg/mL (≈ 99.3 µM). For `Nc1nc(-c2ccc3c(c2)CCCC3)c(CC(=O)O)s1`, the solubility kinetic was 42.3 µg/mL (≈ 147 µM). Compound `O=C(Nc1ccccc1Cl)C1Cc2ccccc2O/C1=N\O` (stereo unspecified) has a solubility kinetic greater than 47.5 µg/mL. In the case of `Cc1sc2ncn(-c3ccccc3)c(=O)c2c1C`, the solubility kinetic is reported as 5.6 µg/mL (≈ 21.8 µM). Work on `COC(=O)c1ccc2nccnc2c1` yielded a solubility kinetic of 22.7 µg/mL (≈ 121 µM). Work on `Cc1ccc(C(=O)CCC(=O)Nc2cc(C)ccn2)cc1` yielded a solubility kinetic of 6.2 µg/mL (≈ 22 µM). `NC(=O)c1ccc[n+](CC(=O)c2ccc(Br)cc2)c1.[Br-]` gave a solubility kinetic greater than 60 µg/mL.

From PubChem BioAssay AID1996
